Paper PMC5874699, “Antimicrobial and Antibiofilm Activity of UP-5, an Ultrashort Antimicrobial Peptide Designed Using Only Arginine and Biphenylalanine” (Pharmaceuticals, 2018)
Where two headings read alike, the source gives them in different places. Square brackets hold non-standard residues; d marks the D form. Peptide text beside a SMILES is read from it. Bip = N[C@@H](Cc1ccc(-c2ccccc2)cc1)C(=O)O

Experiments:
S. aureus (ATCC 43300) = type: cell-based, Staphylococcus aureus; settings: ATCC 43300, 24 h
Description: (§1) All bacterial susceptibility, biofilm, and synergistic assays of peptides, antibiotics, and peptides-antibiotics combinations used bacterial strains obtained from the American Type Tissue Culture Collection (ATCC, Manassas, VA, USA) that states the mechanism of resistance for each strain according to ATCC number. Gram-positive bacteria were represented by five strains, the wild type strain Staphylococcus aureus (ATCC 29213) and methicillin-resistant S. aureus (MRSA) (ATCC 33591) in addition to clinically isolated strains S. aureus (ATCC BAA-41& 43300) and Enterococcus faecalis (ATCC BAA-2316). The Gram-negative bacteria strains were represented by wild type strains of Escherichia coli (ATCC 25922 & 35218) and Pseudomonas aeruginosa (ATCC 27853) as well as the clinically isolated multidrug-resistant strain P. aeruginosa (ATCC BAA-2114). The bacteria were cultured onto Muller Hinton Agar (Scharlab, S.L, Barcelona, Spain). Mueller Hinton Broth (Oxoid Ltd., Basingstoke, UK) was used to prepare all bacterial suspensions and to dissolve the peptides and the antibiotics. The assay was performed in sterile 96-well polypropylene microtiter plates.
(§2) All bacterial susceptibility assays were conducted according to the microbroth dilution method outlined by the Clinical and Laboratory Standards Institute (CLSI) guidelines.
(§3) Briefly, pre-sterilized MHB was used as a growth medium for organisms obtained from stock media with glycerol. Bacterial cells were grown overnight in MHB and diluted to 10^6 CFU/mL in the same medium prior to use. For peptide, serial concentrations in the range of 0.5–100 μM were prepared. Then, 50 μL of each peptide concentration and 50 µL of diluted bacterial suspension were added to each well of a 96-well microtiter plate. Peptide solutions were prepared by dissolving the peptide in sterile MHB. Then, the plates were incubated overnight in a humidified atmosphere, and at 37 °C. Bacterial growth was determined by measuring the optical density (OD) at λ = 600 nm using an ELISA plate reader (Epoch, BioTek, Winooski, VT, USA) and the minimum inhibitory concentration (MIC) was determined.
(§4) As described in the previous section, the MIC and MBC values of antibiotics employed in this study were determined against subjected bacterial strains via preparing different concentrations of each antibiotic.

S. aureus (ATCC BAA-41) = type: cell-based, Staphylococcus aureus; settings: ATCC BAA-41, 24 h
Description: as §1, §2, §3, §4

[1] = test system: Enterococcus faecalis (ATCC BAA-2316); type: cell-based; settings: ATCC BAA-2316, 24 h
Description: as §1, §2, §3

[2] = test system: Escherichia coli (ATCC 25922); type: cell-based; settings: ATCC 25922, 24 h
Description: as §1, §2, §3

[3] = test system: Escherichia coli (ATCC 35218); type: cell-based; settings: ATCC 35218, 24 h
Description: as §1, §2, §3

[4] = test system: Pseudomonas aeruginosa (ATCC 27853); type: cell-based; settings: ATCC 27853, 24 h
Description: as §1, §2, §3

[5] = test system: P. aeruginosa (ATCC BAA-2114); experiment: Broth microdilution checkerboard, UP-5 with antibiotics; type: cell-based, Pseudomonas aeruginosa; settings: P. auroginosa ATCC BAA-2114, checkerboard, triplicate
Description: as §1
According to the broth microdilution checkerboard technique, the MIC and MBC values of peptide-antibiotics combinations against wild type and multidrug resistant bacterial strains were determined. Serial concentrations of peptide and each antibiotic were prepared in the range of 0.005–100 μM. In each well of a 96-well microtiter plate, 25 μL of each peptide concentration were added to 25 μL of each antibiotic concentration which is followed by adding 50 μL of diluted bacterial suspension (10^6 CFU/mL) to each well. The prepared concentrations of peptide and each antibiotic were arranged into rows and columns, respectively, in a 96-well microtiter plate according the checkerboard technique. Then as described previously (see Section 2.4.1), the procedure was followed. All MIC and MBC determinations of all assays were made in triplicate.
The fractional inhibitory concentration (FIC) is defined as the inhibitory concentration of the antimicrobial combination divided by that of the single antimicrobial component. To calculate FIC index for peptide-antibiotic combinations, the following equation was used:(1) FIC index=MIC of drug X in combination/MIC of drug X alone+MIC of drug Y in combination/MIC of drug Y alone
The FIC indices were interpreted as follows: ≤0.5: synergistic activity, 0.5–1: additive activity, 1–4 indifferent, >4: antagonism. Interpretation and assessment of the FIC indices were performed according to the broth microdilution checkerboard technique.

[6] = test system: S. aureus (ATCC 33591) biofilm; type: cell-based, Staphylococcus aureus; settings: for Viable Biofilm Cells (%): 4 h treatment 37 °C, 8 h recovery, colony count
Description: Biofilm formation relied on a published protocol employing the Calgary biofilm device (Innovotech, Edmonton, AB, Canada). Briefly, S. aureus (ATCC 33591) bacterial strain was incubated in MHB and cultures were diluted in the same medium to achieve a concentration of 10^5 CFU/mL. Next, diluted bacterial suspension (150 µL) was added to the sterile 96 peg-lids on which biofilm cells can build up. Negative control lanes were prepared by adding 150 µL MHB to six wells. And then the pegs were incubated for 14–16 h under rotation of 125 rpm at 37 °C to allow biofilm formation on the purpose designed pegs. The pegs were rinsed twice with phosphate-buffered saline (PBS) to remove planktonic cells as a washing step. Each peg-lid was then transferred into a “challenge 96-well microtiter plate” containing 200 μL of different peptides concentrations and the peg-lids containing the biofilms were incubated for four hours at 37 °C under rotation at 125 rpm. After biofilm treatment with the challenge plate, the biofilms were re-washed twice with PBS then transferred into the recovery plate for eight hours. The minimum biofilm eradication concentration MBEC value is defined as the minimum concentration needed to inhibit the re-growth of biofilms after four hours of peptide treatment, washing twice with PBS and incubating in pre-sterilized MHB (recovery plate) for 8 h, using an ELISA plate reader λ = 600 nm. Additionally, the biofilms were assessed for their minimum bactericidal concentration (MBECb), this assay was conducted similar to MBC assay (see Section 2.4.1). MBECb parameter is defined as the lowest concentration able to eradicate 3log^10 of the viable microorganisms in a biofilm (99.9% killing) after 8 h of incubation in recovery plates using the colony count method.

MIC Value (S. aureus (ATCC 43300)): 15 µM
MIC Value (S. aureus (ATCC BAA-41)): 15 µM
MIC Value [1]: 70 µM
MIC Value [2]: 55 µM
MIC Value [3]: 60 µM
MIC Value [4]: 65 µM
UP-5 MIC in Combination ([5]; UP-5 in combination with Ampicillin): 20 µM
UP-5 MIC in Combination ([5]; UP-5 in combination with Chloramphenicol): 10 µM
UP-5 MIC in Combination ([5]; UP-5 in combination with Erythromycin): 27.5 µM
UP-5 MIC in Combination ([5]; UP-5 in combination with Levofloxacin): 20 µM
UP-5 MIC in Combination ([5]; UP-5 in combination with Rifampicin): 25 µM
Compound: N=C(N)NCCC[C@H](NC(=O)[C@H](Cc1ccc(-c2ccccc2)cc1)NC(=O)[C@H](CCCNC(=N)N)NC(=O)[C@H](Cc1ccc(-c2ccccc2)cc1)NC(=O)[C@@H](N)CCCNC(=N)N)C(=O)O [UP-5] (H-R[Bip]R[Bip]R-OH)
MBC Value (S. aureus (ATCC 43300)): 15 µM
MBC Value (S. aureus (ATCC BAA-41)): 15 µM
MBC Value [1]: 70 µM
MBC Value [2]: 55 µM
MBC Value [3]: 60 µM
MBC Value [4]: 65 µM
MBEC value (minimum biofilm eradication concentration) ([6]; ATCC 33591, 4 h): 20 µM
MBCb (MBECb), minimum bactericidal concentration against biofilm cells ([6]; ATCC 33591, 8 h): 20 µM
Viable Biofilm Cells (%) ([6]; peptide concentration 10 μM): 0.35%
Viable Biofilm Cells (%) ([6]; peptide concentration 20 μM): 0.108%
Viable Biofilm Cells (%) ([6]; peptide concentration 30 μM): 0.054%
Viable Biofilm Cells (%) ([6]; peptide concentration 40 μM): 0%
Viable Biofilm Cells (%) ([6]; peptide concentration 60 μM): 0%
Viable Biofilm Cells (%) ([6]; peptide concentration 80 μM): 0%
Viable Biofilm Cells (%) ([6]; peptide concentration 100 μM, compared to untreated biofilm): 0%
